These results are taken from patent US8748417B2, “Amino-pyrrolidine-azetidine diamides as monoacylglycerol lipase inhibitors” (Janssen Pharmaceutica, NV, priority 2010, dated 2014).

For assay [1], the target named is T1, purified wild type MGL (wt-MGLL 6H-11-313) (Homo sapiens, UniProt Q99685).
T1 construct: purified wild type MGL (wt-MGLL 6H-11-313)
T1 sequence (Q99685 1-303): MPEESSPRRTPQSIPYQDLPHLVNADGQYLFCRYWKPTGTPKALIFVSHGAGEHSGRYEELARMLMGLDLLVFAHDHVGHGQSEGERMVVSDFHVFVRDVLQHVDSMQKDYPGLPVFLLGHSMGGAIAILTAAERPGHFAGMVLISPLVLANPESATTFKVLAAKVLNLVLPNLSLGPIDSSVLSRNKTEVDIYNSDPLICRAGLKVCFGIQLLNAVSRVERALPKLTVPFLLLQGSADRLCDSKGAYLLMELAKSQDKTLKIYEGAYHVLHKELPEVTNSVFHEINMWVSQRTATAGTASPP
In words: MGL enzyme activity assay (4MU-B cleavage), wild type MGL. Type of assay: biochemical. The following applies: wild type MGL 5 nM, 4MU-B 10 μM, 37° C.; read-out: MGL wild type inh IC50. An outline of the steps: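 Enzyme in 20 mM PIPES pH 7.0, 150 mM NaCl, 0.001% Tween 20 with 4MU-B at 10 μM final and MGL at 5 nM final; compounds 17 to 0.0003 μM final, enzyme added last. Fluorescence (ex 335/em 440 nm) followed at 37° C for 5 min; IC50 from fit of fractional activity versus inhibitor concentration.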

Assay [2] relates to MGL (rat brain homogenate). In words: 2-AG accumulation assay in rat brain homogenate. It counts as biochemical. The conditions noted are these: compound 1 μM, percent of vehicle 2-AG accumulation. The procedure, abridged:
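Rat brain homogenate was incubated with compound for 15 min at 37° C., after which CaCl2 was added to a final concentration of 10 mM and incubation continued for 15 min at 37° C. in 5 mL total. Reactions were stopped with 6 mL of 2:1 chloroform/methanol, and 2-AG accumulated in the organic phase was quantified by HPLC/MS.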

pIC50: −log10 of the molar value.

Take `O=C(c1cscn1)N1CC[C@H](NC2CN(C(=O)c3sc4cc(-c5ccc(C(F)(F)F)cc5)ccc4c3Cl)C2)C1` [Cpd 151, (3S)-N-[1-({3-Chloro-6-[4-(trifluoromethyl)phenyl]-1-benzothiophen-2-yl}carbonyl)azetidin-3-yl]-1-(1,3-thiazol-4-ylcarbonyl)pyrrolidin-3-amine]: in assay [1], the pIC50 was more than 8.30. Moreover, the “Rat Brain 2AG % VehCntrl (%) @1 μM” value in assay [2] worked out at 495%.

For `O=C(c1ccccc1)N1CC[C@H](NC2CN(C(=O)c3ccc(-c4cccc(C(F)(F)F)c4)cc3F)C2)C1` [Cpd 152, (3S)-N-(1-{[3-Fluoro-3′-(trifluoromethyl)biphenyl-4-yl]carbonyl}azetidin-3-yl)-1-(phenylcarbonyl)pyrrolidin-3-amine], the pIC50 in assay [1] was 7.45. Moreover, the “Rat Brain 2AG % VehCntrl (%) @1 μM” value in assay [2] is on record as 404%.

With `O=C(c1ccc2c(ccn2-c2ccc(C(F)(F)F)cc2)c1)N1CC(N[C@H]2CCN(C(=O)c3ccccc3)C2)C1` [Cpd 154, (3S)-1-(Phenylcarbonyl)-N-[1-({1-[4-(trifluoromethyl)phenyl]-1H-indol-5-yl}carbonyl)azetidin-3-yl]pyrrolidin-3-amine], the pIC50 in assay [1] is 7.87. For the same compound, the “Rat Brain 2AG % VehCntrl (%) @1 μM” value in assay [2] turned out to be 582%.

For the compound `O=C(c1ccc2c(ccn2-c2ccc(C(F)(F)F)cc2)c1)N1CC(N[C@H]2CCN(C(=O)c3cscn3)C2)C1` [Cpd 158, (3S)-1-(1,3-Thiazol-4-ylcarbonyl)-N-[1-({1-[4-(trifluoromethyl)phenyl]-1H-indol-5-yl}carbonyl)azetidin-3-yl]pyrrolidin-3-amine], the pIC50 in assay [1] is 7.80. Also, the “Rat Brain 2AG % VehCntrl (%) @1 μM” value in assay [2] stood at 415%.

For the compound `O=C(c1ccc2c(ccn2-c2ccc(F)cc2)c1)N1CC(N[C@H]2CCN(C(=O)c3cscn3)C2)C1` [Cpd 160, (3S)-N-(1-{[1-(4-Fluorophenyl)-1H-indol-5-yl]carbonyl}azetidin-3-yl)-1-(1,3-thiazol-4-ylcarbonyl)pyrrolidin-3-amine], in assay [1], the pIC50 is 7.91. In assay [2], the “Rat Brain 2AG % VehCntrl (%) @1 μM” value turned out to be 338%.

Consider `O=C(c1ccc2c(ccn2-c2ccc(F)cc2)c1)N1CC(N[C@H]2CCN(C(=O)c3ccccc3)C2)C1` [Cpd 161, (3S)-N-(1-{[1-(4-Fluorophenyl)-1H-indol-5-yl]carbonyl}azetidin-3-yl)-1-(phenylcarbonyl)pyrrolidin-3-amine], for which the pIC50 in assay [1] was 7.26. For the same compound, the “Rat Brain 2AG % VehCntrl (%) @1 μM” value in assay [2] is 485%.

As for `Cn1cc(-c2ccc(C(F)(F)F)cc2)c2ccc(C(=O)N3CC(N[C@H]4CCN(C(=O)c5nccs5)C4)C3)cc21` [Cpd 163, (3S)-N-[1-({1-Methyl-3-[4-(trifluoromethyl)phenyl]-1H-indol-6-yl}carbonyl)azetidin-3-yl]-1-(1,3-thiazol-2-ylcarbonyl)pyrrolidin-3-amine], the pIC50 in assay [1] is 7.97. The “Rat Brain 2AG % VehCntrl (%) @1 μM” value in assay [2] was 274%.

In the case of `Cn1cc(-c2cccc(C(F)(F)F)c2)c2ccc(C(=O)N3CC(N[C@H]4CCN(C(=O)c5cscn5)C4)C3)cc21` [Cpd 164, (3S)-N-[1-({1-Methyl-3-[3-(trifluoromethyl)phenyl]-1H-indol-6-yl}carbonyl)azetidin-3-yl]-1-(1,3-thiazol-4-ylcarbonyl)pyrrolidin-3-amine], the pIC50 in assay [1] is 7.60. Moreover, in assay [2], the “Rat Brain 2AG % VehCntrl (%) @1 μM” value is recorded as 458%.

Take `Cn1cc(-c2ccc(C(F)(F)F)cc2)c2ccc(C(=O)N3CC(N[C@H]4CCN(C(=O)c5cscn5)C4)C3)cc21` [Cpd 165, (3S)-N-[1-({1-Methyl-3-[4-(trifluoromethyl)phenyl]-1H-indol-6-yl}carbonyl)azetidin-3-yl]-1-(1,3-thiazol-4-ylcarbonyl)pyrrolidin-3-amine]: in assay [1], the pIC50 is 7.35. In assay [2], the “Rat Brain 2AG % VehCntrl (%) @1 μM” value stood at 228%.

For the compound `Cn1cc(-c2cccc(C(F)(F)F)c2)c2ccc(C(=O)N3CC(N[C@H]4CCN(C(=O)c5ccccc5)C4)C3)cc21` [Cpd 166, (3S)-N-[1-({1-Methyl-3-[3-(trifluoromethyl)phenyl]-1H-indol-6-yl}carbonyl)azetidin-3-yl]-1-(phenylcarbonyl)pyrrolidin-3-amine], the negative-log IC50 (pIC50) in assay [1] was 7.30. Besides, in assay [2], the “Rat Brain 2AG % VehCntrl (%) @1 μM” value worked out at 322%.

Turning to `O=C(c1nccs1)N1CC[C@H](NC2CN(C(=O)c3sc4cc(C(F)(F)F)ccc4c3Cl)C2)C1` [Cpd 167, (3S)-N-(1-{[3-Chloro-6-(trifluoromethyl)-1-benzothiophen-2-yl]carbonyl}azetidin-3-yl)-1-(1,3-thiazol-2-ylcarbonyl)pyrrolidin-3-amine], the pIC50 in assay [1] was 7.96. Also, the “Rat Brain 2AG % VehCntrl (%) @1 μM” value in assay [2] is given as 695%.

Regarding `O=C(c1cscn1)N1CC[C@H](NC2CN(C(=O)c3sc4cc(C(F)(F)F)ccc4c3Cl)C2)C1` [Cpd 168, (3S)-N-(1-{[3-Chloro-6-(trifluoromethyl)-1-benzothiophen-2-yl]carbonyl}azetidin-3-yl)-1-(1,3-thiazol-4-ylcarbonyl)pyrrolidin-3-amine], the pIC50 in assay [1] was 7.49. The “Rat Brain 2AG % VehCntrl (%) @1 μM” value in assay [2] is given as 611%.

Turning to `Cn1cc(-c2ccccc2)c2ccc(C(=O)N3CC(N[C@H]4CCN(C(=O)c5nccs5)C4)C3)cc21` [Cpd 169, (3S)-N-{1-[(1-Methyl-3-phenyl-1H-indol-6-yl)carbonyl]azetidin-3-yl}-1-(1,3-thiazol-2-ylcarbonyl)pyrrolidin-3-amine], the pIC50 in assay [1] was 7.86. Further, in assay [2], the “Rat Brain 2AG % VehCntrl (%) @1 μM” value is listed as 482%.

On to `O=C(c1nccs1)N1CC[C@H](NC2CN(C(=O)c3sc4ccc(-c5ccccc5)cc4c3F)C2)C1` [Cpd 171, (3S)-N-{1-[(3-Fluoro-5-phenyl-1-benzothiophen-2-yl)carbonyl]azetidin-3-yl}-1-(1,3-thiazol-2-ylcarbonyl)pyrrolidin-3-amine], for which, in assay [1], the pIC50 is more than 8.30. Further, the “Rat Brain 2AG % VehCntrl (%) @1 μM” value in assay [2] is 614%.

As for `O=C(c1cscn1)N1CC[C@H](NC2CN(C(=O)c3sc4ccc(-c5ccccc5)cc4c3F)C2)C1` [Cpd 172, (3S)-N-{1-[(3-Fluoro-5-phenyl-1-benzothiophen-2-yl)carbonyl]azetidin-3-yl}-1-(1,3-thiazol-4-ylcarbonyl)pyrrolidin-3-amine], the pIC50 in assay [1] was more than 8.30. Further, the “Rat Brain 2AG % VehCntrl (%) @1 μM” value in assay [2] was 532%.

With `O=C(c1ccccc1)N1CC[C@H](NC2CN(C(=O)c3sc4ccc(-c5ccccc5)cc4c3F)C2)C1` [Cpd 173, (3S)-N-{1-[(3-Fluoro-5-phenyl-1-benzothiophen-2-yl)carbonyl]azetidin-3-yl}-1-(phenylcarbonyl)pyrrolidin-3-amine], the pIC50 in assay [1] is more than 8.30. In assay [2], the “Rat Brain 2AG % VehCntrl (%) @1 μM” value came out at 628%.

For `O=C(c1nccs1)N1CC[C@H](NC2CN(C(=O)c3sc4ccc(-c5ccc(C(F)(F)F)cc5)cc4c3F)C2)C1` [Cpd 174, (3S)-N-[1-({3-Fluoro-5-[4-(trifluoromethyl)phenyl]-1-benzothiophen-2-yl}carbonyl)azetidin-3-yl]-1-(1,3-thiazol-2-ylcarbonyl)pyrrolidin-3-amine], the pIC50 in assay [1] was 8.00. In assay [2], the “Rat Brain 2AG % VehCntrl (%) @1 μM” value is recorded as 791%.

Turning to `O=C(c1cscn1)N1CC[C@H](NC2CN(C(=O)c3sc4ccc(-c5ccc(C(F)(F)F)cc5)cc4c3F)C2)C1` [Cpd 175, (3S)-N-[1-({3-Fluoro-5-[4-(trifluoromethyl)phenyl]-1-benzothiophen-2-yl}carbonyl)azetidin-3-yl]-1-(1,3-thiazol-4-ylcarbonyl)pyrrolidin-3-amine], the pIC50 in assay [1] is more than 8.30. Also, the “Rat Brain 2AG % VehCntrl (%) @1 μM” value in assay [2] is listed as 734%.

For `O=C(c1ccccc1)N1CC[C@H](NC2CN(C(=O)c3sc4ccc(-c5ccc(C(F)(F)F)cc5)cc4c3F)C2)C1` [Cpd 176, (3S)-N-[1-({3-Fluoro-5-[4-(trifluoromethyl)phenyl]-1-benzothiophen-2-yl}carbonyl)azetidin-3-yl]-1-(phenylcarbonyl)pyrrolidin-3-amine], in assay [1], the pIC50 was 8.22. In addition, the “Rat Brain 2AG % VehCntrl (%) @1 μM” value in assay [2] amounted to 832%.

Take `O=C(c1nccs1)N1CC[C@H](NC2CN(C(=O)c3sc4cc(-c5ccc(C(F)(F)F)cc5)ccc4c3F)C2)C1` [Cpd 177, (3S)-N-[1-({3-Fluoro-6-[4-(trifluoromethyl)phenyl]-1-benzothiophen-2-yl}carbonyl)azetidin-3-yl]-1-(1,3-thiazol-2-ylcarbonyl)pyrrolidin-3-amine]: in assay [1], the pIC50 was 7.80. Besides, the “Rat Brain 2AG % VehCntrl (%) @1 μM” value in assay [2] was 766%.

With `O=C(c1cscn1)N1CC[C@H](NC2CN(C(=O)c3sc4cc(-c5ccc(C(F)(F)F)cc5)ccc4c3F)C2)C1` [Cpd 178, (3S)-N-[1-({3-Fluoro-6-[4-(trifluoromethyl)phenyl]-1-benzothiophen-2-yl}carbonyl)azetidin-3-yl]-1-(1,3-thiazol-4-ylcarbonyl)pyrrolidin-3-amine], the pIC50 in assay [1] was more than 8.30. Besides, in assay [2], the “Rat Brain 2AG % VehCntrl (%) @1 μM” value is 297%.

Turning to `O=C(c1ccccc1)N1CC[C@H](NC2CN(C(=O)c3sc4cc(-c5ccc(C(F)(F)F)cc5)ccc4c3F)C2)C1` [Cpd 179, (3S)-N-[1-({3-Fluoro-6-[4-(trifluoromethyl)phenyl]-1-benzothiophen-2-yl}carbonyl)azetidin-3-yl]-1-(phenylcarbonyl)pyrrolidin-3-amine], the pIC50 in assay [1] is 7.92. The “Rat Brain 2AG % VehCntrl (%) @1 μM” value in assay [2] is given as 259%.
